What follows are compounds tested on HCV replicon cells (assay: HCV replicon FRET / luciferase assay (96-well plates)). Conditions: Hepatitis C virus, 24 h, Table 1d (class symbols); HCV replicon; read-out: EC50.
Type: cell-based
Description: FRET Assay Preparation. To perform the HCV FRET screening assay, 96-well cell culture plates were used. The FRET peptide (Anaspec, Inc.) (Taliani et al., Anal. Biochem. 1996, 240, 60-67) contains a fluorescence donor, EDANS, near one end of the peptide and an acceptor, DABCYL, near the other end. The fluorescence of the peptide is quenched by […] resonance energy transfer (RET) between the donor and the acceptor, but as the NS3 protease cleaves the peptide the products are released from RET quenching and the fluorescence of the donor becomes apparent. The assay reagent was made as follows: 5× cell Luciferase cell culture lysis reagent from Promega (#E153A) diluted to 1× with dH2O, NaCl added to 150 mM final, the FRET peptide diluted to 20 μM final from a 2 mM stock.
To prepare plates, HCV replicon cells, with or without a Renilla luciferase reporter gene, were trypsinized and placed into each well of a 96-well plate with titrated test compounds added in columns 3 through 12; columns 1 and 2 contained a control compound (HCV protease inhibitor), and the bottom row contained cells without compound. The plates were then placed in a CO2 incubator at 37° C.
Assays. Subsequent to addition of the test compounds described above (FRET Assay Preparation), at various times the plate was removed and Alamar blue solution (Trek Diagnostics, #00-100) was added per well as a measure of cellular toxicity. After reading in a Cytoflour 4000 instrument (PE Biosystems), plates were rinsed with PBS and then used for FRET assay by the addition of 30 ul of the FRET peptide assay reagent described above (FRET Assay Preparation) per well. The plate was then placed into the Cytoflour 4000 instrument which had been set to 340 excite/490 emission, automatic mode for 20 cycles and the plate read in a kinetic mode. Typically, the signal to noise using an endpoint analysis after the reads was at least three-fold. Alternatively, after Alamar blue reading, plates were rinsed with PBS, 50 ul of DMEM (high glucose) without phenol red was added and plates were then used for luciferase assay using the Promega Dual-Glo Luciferase Assay System.
Compound analysis was determined by quantification of the relative HCV replicon inhibition and the relative cytotoxicity values. To calculate cytoxicity values, the average Alamar Blue fluorescence signals from the control wells were set as 100% non-toxic. The individual signals in each of the compound test wells were then divided by the average control signal and multiplied by 100% to determine […]. To calculate the HCV replicon inhibition values, an average background value was obtained from the two wells containing the highest amount of HCV protease inhibitor at the end of the assay period. These numbers were similar to those obtained from naïve Huh-7 cells.
The background numbers were then subtracted from the average signal obtained from the control wells and this number was used as 100% activity. The individual signals in each of the compound test wells were then divided by the averaged control values after background subtraction and multiplied by 100% to determine percent activity. EC50 values for a protease inhibitor titration were calculated as the concentration which caused a 50% reduction in FRET or luciferase activity. The two numbers generated for the compound plate, percent cytoxicity and percent activity were used to determine compounds of interest for further analysis.

SMILES	EC50
CNC(=O)c1c(-c2ccc(F)cc2)oc2ccc(-c3cc(C(=O)NC4(c5ccccn5)CC4)c(OCC#N)cc3C)cc12	1 to 250 nM
CNC(=O)c1c(-c2ccc(F)cc2)oc2ccc(-c3cc(C(=O)NC4(c5cncnc5)CC4)c(OC)cc3C)cc12	1 to 250 nM
CCCCOc1cc(C)c(-c2ccc3oc(-c4ccc(F)cc4)c(C(=O)NC)c3c2)cc1C(=O)NC1(c2ccccn2)CC1	1 to 250 nM
CNC(=O)c1c(-c2ccc(F)cc2)oc2ccc(-c3cc(C(=O)NC4(c5ccccn5)CC4)c(OCCC(C)C)cc3C)cc12	1 to 250 nM
CNC(=O)c1c(-c2ccc(F)cc2)oc2ccc(-c3cc(C(=O)NC4(c5ccccn5)CC4)c(OCCN(C)C)cc3C)cc12	1 to 250 nM
CNC(=O)c1c(-c2ccc(F)cc2)oc2ccc(-c3cc(C(=O)NC4(c5ccccn5)CC4)c(OCCCN(C)C)cc3C)cc12	1 to 250 nM
CNC(=O)c1c(-c2ccc(F)cc2)oc2ccc(-c3cc(C(=O)NC4(c5ccccn5)CC4)c(OC4CCC4)cc3C)cc12	1 to 250 nM
CNC(=O)c1c(-c2ccc(F)cc2)oc2ccc(-c3cc(C(=O)NC4(c5ccccn5)CC4)c(OC4CCCCC4)cc3C)cc12	1 to 250 nM
CNC(=O)c1c(-c2ccc(F)cc2)oc2ccc(-c3cc(C(=O)NC4(c5ccccn5)CC4)c(OCCCOC)cc3C)cc12	1 to 250 nM
CNC(=O)c1c(-c2ccc(F)cc2)oc2ccc(-c3cc(C(=O)NC4(c5ccccn5)CC4)c(OCCC4CC4)cc3C)cc12	1 to 250 nM
CNC(=O)c1c(-c2ccc(F)cc2)oc2ccc(-c3cc(C(=O)NC4(c5ccccn5)CC4)c(OCc4ccccc4)cc3C)cc12	1 to 250 nM
CNC(=O)c1c(-c2ccc(F)cc2)oc2ccc(-c3cc(C(=O)NC4(c5ccccn5)CC4)c(OCc4ccccc4Cl)cc3C)cc12	1 to 250 nM
CNC(=O)c1c(-c2ccc(F)cc2)oc2ccc(-c3cc(C(=O)NC4(c5ccccn5)CC4)c(OCc4cccc(Cl)c4)cc3C)cc12	1 to 250 nM
CNC(=O)c1c(-c2ccc(F)cc2)oc2ccc(-c3cc(C(=O)NC4(c5ccccn5)CC4)c(OCc4ccc(Cl)cc4)cc3C)cc12	1 to 250 nM
CNC(=O)c1c(-c2ccc(F)cc2)oc2ccc(-c3cc(C(=O)NC4(c5ccccn5)CC4)c(OCCc4ccccc4)cc3C)cc12	1 to 250 nM
CNC(=O)c1c(-c2ccc(F)cc2)oc2ccc(-c3cc(C(=O)NC4(c5ccccn5)CC4)c(OCCc4ccc(OC)cc4)cc3C)cc12	1 to 250 nM
CNC(=O)c1c(-c2ccc(F)cc2)oc2ccc(-c3cc(C(=O)NC4(c5ccccn5)CC4)c(OCCc4ccc(N(C)C)cc4)cc3C)cc12	1 to 250 nM
CNC(=O)c1c(-c2ccc(F)cc2)oc2ccc(-c3cc(C(=O)NC4(c5ccccn5)CC4)c(OC4CCOCC4)cc3C)cc12	1 to 250 nM
CNC(=O)c1c(-c2ccc(F)cc2)oc2ccc(-c3cc(C(=O)NC4(c5ccccn5)CC4)c(OCc4ccccn4)cc3C)cc12	1 to 250 nM
CNC(=O)c1c(-c2ccc(F)cc2)oc2ccc(-c3cc(C(=O)NC4(c5ccccn5)CC4)c(OCc4cccnc4)cc3C)cc12	1 to 250 nM

SMILES	EC50
CNC(=O)c1c(-c2ccc(F)cc2)oc2ccc(-c3cc(C(=O)NC4(c5ccccn5)CC4)c(OCC4CCOC4)cc3C)cc12 (stereo not shown)	1 to 250 nM
CNC(=O)c1c(-c2ccc(F)cc2)oc2ccc(-c3cc(C(=O)NC4(c5ccccn5)CC4)c(OCCn4ccnc4)cc3C)cc12	1 to 250 nM
CNC(=O)c1c(-c2ccc(F)cc2)oc2ccc(-c3cc(C(=O)NC4(c5ccccn5)CC4)c(OCCN4CCN(C)CC4)cc3C)cc12	1 to 250 nM
CNC(=O)c1c(-c2ccc(F)cc2)oc2ccc(-c3cc(C(=O)NC4(c5ccccn5)CC4)c(OCc4ccncc4)cc3C)cc12	1 to 250 nM
CNC(=O)c1c(-c2ccc(F)cc2)oc2ccc(-c3cc(C(=O)NC4(c5ncoc5C)CC4)ccc3C)cc12	1 to 250 nM
CNC(=O)c1c(-c2ccc(F)cc2)oc2ccc(-c3cc(C(=O)NC4(c5ccccn5)CC4)c(OCCN4CCOCC4)cc3C)cc12	1 to 250 nM
CNC(=O)c1c(-c2ccc(F)cc2)oc2ccc(-c3cc(C(=O)NC4(c5ccccn5)CC4)c(OCC4CCOCC4)cc3C)cc12	1 to 250 nM
CNC(=O)c1c(-c2ccc(F)cc2)oc2ccc(-c3cc(C(=O)NC4(c5ocnc5C)CC4)ccc3C)cc12	1 to 250 nM
CNC(=O)c1c(-c2ccc(F)cc2)oc2ccc(-c3cc(C(=O)NC4(c5nc(C)cc(C)n5)CC4)c(OC)cc3C)cc12	1 to 250 nM
CNC(=O)c1c(-c2ccc(F)cc2)oc2ccc(-c3cc(C(=O)NC4(c5cnccn5)CC4)ccc3C)cc12	1 to 250 nM
CNC(=O)c1c(-c2ccc(F)cc2)oc2ccc(-c3cc(C(=O)NC4(c5nc(C)cc(C)n5)CC4)ccc3C)cc12	1 to 250 nM
CNC(=O)c1c(-c2ccc(F)cc2)oc2ccc(-c3cc(C(=O)NC4(c5nccc(C)n5)CC4)ccc3C)cc12	1 to 250 nM
CNC(=O)c1c(-c2ccc(F)cc2)oc2ccc(-c3cc(C(=O)NC4(c5ncc(C)cn5)CC4)ccc3C)cc12	1 to 250 nM
CNC(=O)c1c(-c2ccc(F)cc2)oc2ccc(-c3cc(C(=O)NC4(c5ncc(F)cn5)CC4)ccc3C)cc12	1 to 250 nM
CNC(=O)c1c(-c2ccc(F)cc2)oc2ccc(-c3cc(C(=O)NC4(c5ccncn5)CC4)c(OC)cc3C)cc12	1 to 250 nM
CNC(=O)c1c(-c2ccc(F)cc2)oc2ccc(-c3cc(C(=O)NC4(c5nccc(C)n5)CC4)c(OC)cc3C)cc12	1 to 250 nM
CNC(=O)c1c(-c2ccc(F)cc2)oc2ccc(-c3cc(C(=O)NC4(c5ncc(F)cn5)CC4)c(OC)cc3C)cc12	1 to 250 nM
CNC(=O)c1c(-c2ccc(F)cc2)oc2ccc(-c3cc(C(=O)NC4(c5ccnnc5)CC4)ccc3C)cc12	1 to 250 nM
CNC(=O)c1c(-c2ccc(F)cc2)oc2ccc(-c3cc(C(=O)NC4(c5ncc(C)cn5)CC4)c(OC)cc3C)cc12	1 to 250 nM
CNC(=O)c1c(-c2ccc(F)cc2)oc2ccc(-c3cc(C(=O)NC4(c5nccc(C)n5)CC4)c(OC)cc3C)c(F)c12	1 to 250 nM

SMILES	EC50
CNC(=O)c1c(-c2ccc(F)cc2)oc2ccc(-c3cc(C(=O)NC4(c5ncc(C)cn5)CC4)c(OC)cc3C)c(F)c12	1 to 250 nM
CNC(=O)c1c(-c2ccc(F)cc2)oc2ccc(-c3cc(C(=O)NC4(c5cnccn5)CC4)c(OC)cc3C)c(F)c12	1 to 250 nM
CNC(=O)c1c(-c2ccc(F)cc2)oc2ccc(-c3cc(C(=O)NC4(c5ccnnc5)CC4)c(OC)cc3C)cc12	1 to 250 nM
CNC(=O)c1c(-c2ccc(F)cc2)oc2ccc(-c3cc(C(=O)NC4(c5ccncn5)CC4)c(OC)cc3C)c(F)c12	1 to 250 nM
CNC(=O)c1c(-c2ccc(F)cc2)oc2ccc(-c3cc(C(=O)NC4(c5nc(C)cc(C)n5)CC4)c(OC)cc3C)c(F)c12	1 to 250 nM
CNC(=O)c1c(-c2ccc(F)cc2)oc2ccc(-c3cc(C(=O)NC(C)(C)C)c(OC)cc3OCC(N)=O)cc12	1 to 250 nM
CNC(=O)c1c(-c2ccc(F)cc2)oc2ccc(-c3cc(C(=O)NC4(c5cccnn5)CC4)c(OC)cc3C)cc12	1 to 250 nM
CNC(=O)c1c(-c2ccc(F)cc2)oc2ccc(-c3cc(C(=O)NC4(c5cnccn5)CC4)ccc3C)c(F)c12	1 to 250 nM
CNC(=O)c1c(-c2ccc(F)cc2)oc2ccc(-c3cc(C(=O)NC4(c5ccncn5)CC4)ccc3C)c(F)c12	1 to 250 nM
CNC(=O)c1c(-c2ccc(F)cc2)oc2ccc(-c3cc(C(=O)NC4(c5cccnn5)CC4)ccc3C)c(F)c12	1 to 250 nM
CNC(=O)c1c(-c2ccc(F)cc2)oc2ccc(-c3cc(C(=O)NC4(c5cccnn5)CC4)c(OC)cc3C)c(F)c12	1 to 250 nM
CNC(=O)c1c(-c2ccc(F)cc2)oc2ccc(-c3cc(C(=O)NC4(c5ccnnc5)CC4)ccc3C)c(F)c12	1 to 250 nM
CNC(=O)c1c(-c2ccc(F)cc2)oc2ccc(-c3cc(C(=O)NC4(c5nc(C)cc(C)n5)CC4)ccc3C)c(F)c12	1 to 250 nM
CNC(=O)c1c(-c2ccc(F)cc2)oc2ccc(-c3cc(C(=O)NC4(c5ncc(C)cn5)CC4)ccc3C)c(F)c12	1 to 250 nM
CNC(=O)c1c(-c2ccc(F)cc2)oc2ccc(-c3cc(C(=O)NC4(c5cccnn5)CC4)ccc3C)cc12	1 to 250 nM
CNC(=O)c1c(-c2ccc(F)cc2)oc2ccc(-c3cc(C(=O)NC4(c5cnn(C)c5)CC4)ccc3C)cc12	1 to 250 nM
CNC(=O)c1c(-c2ccc(F)cc2)oc2ccc(-c3cc(C(=O)NC4(c5nccc(C)n5)CC4)ccc3C)c(F)c12	1 to 250 nM
CNC(=O)c1c(-c2ccc(F)cc2)oc2ccc(-c3cc(C(=O)NC4(c5ncc(F)cn5)CC4)ccc3C)c(F)c12	1 to 250 nM

Source: US8309558B2, “Compounds for the treatment of hepatitis C” (Bristol-Myers Squibb Company, priority 2008, dated 2012)
